# Measured values from ChEMBL document CHEMBL1145157, “Synthesis and structure-activity relationships of soluble 7-substituted 3-(3,5-dimethoxyphenyl)-1,6-naphthyridin-2-amines and related ureas as dual inhibitors of the fibroblast growth factor receptor-1 and vascular endothelial growth factor receptor-2 tyrosine kinases” (J Med Chem, 2005).
# Legend:
# [1] = molecular target: Platelet-derived growth factor receptor beta (Mus musculus, UniProt P05622); assay: Inhibition of glutamate/tyrosine (4:1) copolymer phosphorylation by mouse platelet-derived growth factor receptor-beta
# [2] = molecular target: Proto-oncogene tyrosine-protein kinase Src (Gallus gallus, UniProt P00523); assay: Inhibition of glutamate/tyrosine (4:1) copolymer phosphorylation by avian c-Src tyrosine kinase
# [3] = molecular target: Vascular endothelial growth factor receptor (Homo sapiens, UniProt P17948+P35916+P35968); assay: Inhibition of VEGF-stimulated human umbilical vein endothelial cell proliferation; assay type: functional, cell-based
# [4] = molecular target: Vascular endothelial growth factor receptor 2 (Homo sapiens, UniProt P35968); assay: Inhibition of glutamate/tyrosine (4:1) copolymer phosphorylation by human VEGFR 2 in DELFIA assay
# [5] = molecular target: Platelet-derived growth factor receptor (PDGFr) (Rattus norvegicus, UniProt P20786+Q05030); assay: Inhibition of PDGF-dependent rat glioma cell proliferation; assay type: functional
# Chain of Platelet-derived growth factor receptor beta (P05622 whole entry): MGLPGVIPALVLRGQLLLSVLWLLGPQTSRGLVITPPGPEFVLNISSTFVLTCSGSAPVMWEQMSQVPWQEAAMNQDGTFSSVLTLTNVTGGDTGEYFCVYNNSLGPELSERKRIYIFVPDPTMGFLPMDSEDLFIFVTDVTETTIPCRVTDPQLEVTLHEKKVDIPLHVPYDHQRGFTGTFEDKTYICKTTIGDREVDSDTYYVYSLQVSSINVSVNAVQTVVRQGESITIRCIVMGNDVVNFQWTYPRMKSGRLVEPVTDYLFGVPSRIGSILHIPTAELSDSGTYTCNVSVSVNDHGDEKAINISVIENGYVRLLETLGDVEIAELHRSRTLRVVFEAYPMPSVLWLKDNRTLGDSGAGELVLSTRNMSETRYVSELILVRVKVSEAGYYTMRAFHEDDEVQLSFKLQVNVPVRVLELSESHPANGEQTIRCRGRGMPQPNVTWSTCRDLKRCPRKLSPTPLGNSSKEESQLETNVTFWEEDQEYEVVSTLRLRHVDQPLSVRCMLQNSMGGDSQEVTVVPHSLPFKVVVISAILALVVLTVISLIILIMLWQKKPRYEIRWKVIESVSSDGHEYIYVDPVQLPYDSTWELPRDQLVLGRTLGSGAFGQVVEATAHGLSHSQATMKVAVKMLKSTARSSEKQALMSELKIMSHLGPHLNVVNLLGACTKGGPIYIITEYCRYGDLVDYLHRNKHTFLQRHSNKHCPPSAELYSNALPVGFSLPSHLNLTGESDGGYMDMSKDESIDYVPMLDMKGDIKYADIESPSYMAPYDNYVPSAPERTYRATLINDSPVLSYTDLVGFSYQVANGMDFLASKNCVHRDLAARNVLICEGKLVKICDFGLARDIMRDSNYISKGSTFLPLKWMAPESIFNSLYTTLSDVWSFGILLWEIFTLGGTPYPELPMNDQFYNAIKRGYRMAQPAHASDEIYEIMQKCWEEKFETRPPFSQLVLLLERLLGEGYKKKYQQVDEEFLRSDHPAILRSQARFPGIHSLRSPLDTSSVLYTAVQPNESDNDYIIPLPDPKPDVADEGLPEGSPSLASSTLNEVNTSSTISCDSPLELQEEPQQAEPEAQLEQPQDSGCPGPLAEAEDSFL
# Chain of Vascular endothelial growth factor receptor 2 (P35968 whole entry): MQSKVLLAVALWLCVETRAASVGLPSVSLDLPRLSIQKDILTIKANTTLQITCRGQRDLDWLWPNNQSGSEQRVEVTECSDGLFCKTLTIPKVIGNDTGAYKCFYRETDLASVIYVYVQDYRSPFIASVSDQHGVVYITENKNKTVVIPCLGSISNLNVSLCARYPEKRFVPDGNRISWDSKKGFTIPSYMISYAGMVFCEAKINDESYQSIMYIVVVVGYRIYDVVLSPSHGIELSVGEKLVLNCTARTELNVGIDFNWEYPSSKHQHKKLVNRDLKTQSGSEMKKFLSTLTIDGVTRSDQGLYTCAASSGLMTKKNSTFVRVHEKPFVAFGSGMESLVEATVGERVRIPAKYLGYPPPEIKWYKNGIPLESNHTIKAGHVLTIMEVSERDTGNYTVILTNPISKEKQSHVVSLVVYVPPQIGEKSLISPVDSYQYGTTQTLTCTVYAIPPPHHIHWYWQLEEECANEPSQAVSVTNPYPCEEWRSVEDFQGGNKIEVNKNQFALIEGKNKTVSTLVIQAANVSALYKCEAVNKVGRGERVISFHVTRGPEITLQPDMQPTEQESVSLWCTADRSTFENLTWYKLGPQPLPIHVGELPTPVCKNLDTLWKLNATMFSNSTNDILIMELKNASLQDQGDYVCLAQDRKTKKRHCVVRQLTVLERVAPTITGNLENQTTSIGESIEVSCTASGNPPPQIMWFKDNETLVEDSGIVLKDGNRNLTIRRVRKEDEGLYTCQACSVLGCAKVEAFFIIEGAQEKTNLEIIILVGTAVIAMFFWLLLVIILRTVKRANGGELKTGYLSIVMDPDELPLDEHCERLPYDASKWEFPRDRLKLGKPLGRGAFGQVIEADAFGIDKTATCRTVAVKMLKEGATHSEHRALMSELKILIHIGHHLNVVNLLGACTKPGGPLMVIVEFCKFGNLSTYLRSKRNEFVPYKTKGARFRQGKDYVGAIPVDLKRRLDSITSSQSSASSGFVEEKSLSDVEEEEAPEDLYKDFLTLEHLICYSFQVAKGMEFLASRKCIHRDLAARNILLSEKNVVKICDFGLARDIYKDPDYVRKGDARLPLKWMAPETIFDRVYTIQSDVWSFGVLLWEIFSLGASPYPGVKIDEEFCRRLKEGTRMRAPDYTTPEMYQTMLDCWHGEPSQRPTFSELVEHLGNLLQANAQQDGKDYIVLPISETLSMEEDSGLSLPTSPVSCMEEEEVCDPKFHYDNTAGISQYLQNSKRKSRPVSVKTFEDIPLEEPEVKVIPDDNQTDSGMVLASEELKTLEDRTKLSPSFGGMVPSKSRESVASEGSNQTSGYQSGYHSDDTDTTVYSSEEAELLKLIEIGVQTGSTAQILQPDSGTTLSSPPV
Compound,IC50 [1] [µM],IC50 [2] [µM],IC50 [3] [µM],IC50 [4] [µM],IC50 [5] [µM]
CCNC(=O)Nc1nc2cc(NCCCCN(CC)CC)ncc2cc1-c1c(Cl)cccc1Cl,0.16,0.014,–,–,–
CCN(CC)CCCCNc1ncc2cc(-c3cc(OC)cc(OC)c3)c(NC(=O)NC(C)(C)C)nc2n1 [PD-173074],14,20,0.19,0.12,17
COc1cc(OC)cc(-c2cc3cnc(N(CCCCO)C(C)=O)cc3nc2NC(=O)NC(C)(C)C)c1,> 50,> 50,–,–,–
COc1cc(OC)cc(C2Cc3cnc(N(CCCCO)C(C)=O)cc3N=C2NC(=O)NC(C)(C)C)c1 (stereo not given),> 50,> 50,–,–,–
CN1CCN(CCCNc2cc3nc(N)c(-c4ccccc4)cc3cn2)CC1,8.8,1.6,–,–,–
COc1cc(OC)cc(C2Cc3cnc(N(CCCOCc4ccccc4)C(C)=O)cc3N=C2NC(=O)NC(C)(C)C)c1 (stereo not given),> 50,> 50,–,–,–
COc1cc(OC)cc(-c2cc3cnc(NCCCCCO)cc3nc2NC(=O)NC(C)(C)C)c1,11,> 50,–,–,3.4
COc1cc(OC)cc(-c2cc3cnc(NCCCN4CCN(C)CC4)cc3nc2NC(=O)NC(C)(C)C)c1,16,9.1,–,–,1.8
COc1cc(OC)cc(-c2cc3cnc(NCCCCN4CCN(C)CC4)cc3nc2NC(=O)NC(C)(C)C)c1,3.6,4.1,–,–,1.3
CCNC(=O)Nc1nc2cc(NCCCCN(CC)CC)ncc2cc1-c1cc(OC)cc(OC)c1,6.5,7,–,–,3.5
CCNC(=O)Nc1nc2nc(NCCCN3CCN(C)CC3)ncc2cc1-c1cc(OC)cc(OC)c1,45,35,–,–,12
CCN(CC)CCCCNc1cc2nc(N)c(-c3c(Cl)cccc3Cl)cc2cn1,4,0.042,–,–,–

# The next lines start with the values.
IC50 [1] [µM],IC50 [2] [µM],IC50 [3] [µM],IC50 [4] [µM],IC50 [5] [µM],Compound
> 50,> 50,–,–,–,COc1cc(OC)cc(-c2cc3cnc(N(CCCO)C(C)=O)cc3nc2NC(=O)NC(C)(C)C)c1
0.62,0.019,–,–,–,CN1CCN(CCCNc2cc3nc(NC(=O)NC(C)(C)C)c(-c4c(Cl)cccc4Cl)cc3cn2)CC1
0.48,0.014,–,–,–,CCN(CC)CCCCNc1cc2nc(NC(=O)NC(C)(C)C)c(-c3c(Cl)cccc3Cl)cc2cn1
31,26,–,–,7.9,COc1cc(OC)cc(-c2cc3cnc(NCCCN4CCN(C)CC4)nc3nc2NC(=O)NC(C)(C)C)c1
1.2,0.23,–,–,–,CN1CCN(CCCNc2cc3nc(NC(=O)NC(C)(C)C)c(-c4ccccc4)cc3cn2)CC1
27,6.1,–,–,0.98,COc1cc(OC)cc(-c2cc3cnc(NCCCCCN4CCN(C)CC4)cc3nc2NC(=O)NC(C)(C)C)c1
> 50,> 50,–,–,–,COc1cc(OC)cc(-c2cc3cnc(N(CCCCCO)C(C)=O)cc3nc2NC(=O)NC(C)(C)C)c1
27,22,–,–,> 25,CCNC(=O)Nc1nc2nc(NCCCCN(CC)CC)ncc2cc1-c1cc(OC)cc(OC)c1
–,> 50,–,–,3.4,COc1cc(OC)cc(-c2cc3cnc(NCCCN4CCOCC4)cc3nc2NC(=O)NC(C)(C)C)c1
> 50,> 50,–,–,–,COc1cc(OC)cc(-c2cc3cnc(N(CCCCOCc4ccccc4)C(C)=O)cc3nc2NC(=O)NC(C)(C)C)c1
15,21,–,–,2.7,COc1cc(OC)cc(-c2cc3cnc(NCCCCN4CCOCC4)cc3nc2NC(=O)NC(C)(C)C)c1
> 50,6.8,–,–,–,CN1CCN(CCCNc2cc3nc(NCCCN4CCN(C)CC4)c(-c4ccccc4)cc3cn2)CC1
